In patent US8722663B2, “Di-substituted pyridine derivatives as anticancers” (Otsuka Pharmaceutical Co., Ltd., priority 2010, dated 2014):

Tests used:
[1] = tested on: human breast cancer cell line (MDA-MB-468); test: Growth inhibition of MDA-MB-468 cells, sulforhodamine B method; type: cell-based; conditions: 120 h, 5 days with test compound
Experimental: Growth inhibition of a human breast cancer cell line (MDA-MB-468) was determined by the sulforhodamine B method based on the method of Skehan P. et al. (J Natl Cancer Inst. 1990 Jul. 4; 82(13): 1107-12). In the study, MDA-MB-468 cells were seeded on DMEM medium containing 10% fetal bovine serum in a 96-well microplate. After 24-h incubation at 37° C. in the presence of 5% carbon dioxide, the test compound was added and the cells were incubated for another 5 days. After incubation, a trichloroacetic acid solution was added to yield the final concentration of 10% and the cells were left to stand at 4° C. for 1 hour to fix. Then, the cells were washed with water to remove the medium and trichloroacetic acid and dried in the air. The dried cells were stored at 4° C. until they were stained with sulforhodamine B. To each well, 1% acetic acid solution containing 0.4% sulforhodamine B was added and left to stand for 20 to 30 minutes at room temperature. After discarding the supernatant, each well was washed with 1% acetic acid solution, and 10 mM Tris([…]) solution was added while stirring to elute the dye taken into the cells. Then, the optical density was determined at the measurement wavelength of 492 nm and the reference wavelength of 690 nm, and the difference was calculated. The cell growth activity in each well was defined as the value determined by subtracting the OD in the control well not containing cells (the difference in absorbance between 492 nm and 690 nm) from that in the test well.
The 50% inhibitory concentration (IC50 (nM)) of the test compound was determined by comparing the cell growth activity in the well containing the test compound with that of the control not containing the test compound.

| melting point [°C] | IC50 [1] [nM] | Structure (SMILES) |
| --- | --- | --- |
| 141.8 to 141.9 | < 10 | Cc1cc(/C=C/C(=O)N2CCN(Cc3ccc(COc4ccc(OC(C)C)cc4)c(F)c3)CC2)cc(Cl)c1Oc1ccc(OCc2ccc(C#N)cc2)cn1.Cl [Example 640, 4-({[6-(2-Chloro-4-{(E)-3-[4-(3-fluoro-4-{[4-(propan-2-yloxy)phenoxy]methyl}benzyl)-piperazin-1-yl]-3-oxoprop-1-en-1-yl}-6-methylphenoxy)pyridin-3-yl]oxy}methyl)benzonitrile hydrochloride] |
| 218 to 220.5 | < 10 | Cc1cc(/C=C/C(=O)N2CCN(Cc3ccc(COc4ccc(F)cc4)c(F)c3)CC2)cc(Cl)c1Oc1ccc(OCc2ccc(C#N)cc2)cn1.Cl [Example 641, 4-{[(6-{2-Chloro-4-[(E)-3-(4-{3-fluoro-4-[(4-fluorophenoxy)methyl]benzyl}piperazin-1-yl)-3-oxoprop-1-en-1-yl]-6-methylphenoxy}pyridin-3-yl)oxy]methyl}benzonitrile hydrochloride] |
| 205.5 to 206.5 | < 10 | Br.C/C(C(=O)N1CCN(Cc2ccc(CCOc3ccc(C)cc3)cc2)CC1)=C(/C)c1cc(C)c(Oc2ccc(OCc3ccc(C)cc3)cn2)c(Cl)c1 [Example 706, (E)-3-[3-Chloro-5-methyl-4-({5-[(4-methylbenzyl)oxy]pyridin-2-yl}oxy)phenyl]-2-methyl-1-(4-{4-[2-(4-methylphenoxy)ethyl]benzyl}piperazin-1-yl)but-2-en-1-one hydrobromide] |
| 156.5 to 158.2 | < 10 | Br.C/C(=C\C(=O)N1CCN(Cc2ccc(CCOc3ccc(C)cc3)cc2)CC1)c1cc(C)c(Oc2ccc(OCc3ccc(C)cc3)cn2)c(Cl)c1 [Example 708, (E)-3-[3-Chloro-5-methyl-4-({5-[(4-methylbenzyl)oxy]pyridin-2-yl}oxy)phenyl]-1-(4-{4-[2-(4-methylphenoxy)ethyl]benzyl}piperazin-1-yl)but-2-en-1-one hydrobromide] |
| 211.3 to 211.7 | < 10 | C/C(=C\C(=O)N1CCN(Cc2ccc(CCOc3ccc(F)cc3)cc2)CC1)c1cc(C)c(Oc2ccc(OCc3ccc(C)cc3)cn2)c(Cl)c1.O=C(O)C(=O)O [Example 746, (E)-3-[3-Chloro-5-methyl-4-({5-[(4-methylbenzyl)oxy]pyridin-2-yl}oxy)phenyl]-1-(4-{4-[2-(4-fluorophenoxy)ethyl]benzyl}piperazin-1-yl)but-2-en-1-one ethanedioate] |
| 220 to 220.9 | < 10 | Cc1cc(/C=C/C(=O)N2CCN(Cc3ccc(Cl)cc3)CC2)cc(Cl)c1Oc1ccc(OCCc2ccc(Cl)cc2)cn1.Cl [Example 765, (E)-1-[4-(4-Chlorobenzyl)piperazin-1-yl]-3-[3-chloro-4-({5-[2-(4-chlorophenyl)ethoxy]pyridin-2-yl}oxy)-5-methylphenyl]prop-2-en-1-one hydrochloride] |
| 223.9 to 224.5 | < 10 | Cc1ccc(CN2CCN(C(=O)/C=C/c3cc(C)c(Oc4ccc(OCc5ccc(F)cc5)cn4)c(Cl)c3)CC2)cc1.Cl [Example 779, (E)-3-[3-Chloro-4-({5-[(4-fluorobenzyl)oxy]pyridin-2-yl}oxy)-5-methylphenyl]-1-[4-(4-methylbenzyl)piperazin-1-yl]prop-2-en-1-one hydrochloride] |
| 223.1 to 224 | < 10 | Cc1ccc(CN2CCN(C(=O)/C=C/c3cc(C)c(Oc4ccc(OCc5ccc(Cl)cc5)cn4)c(Cl)c3)CC2)cc1.Cl [Example 781, (E)-3-[3-Chloro-4-({5-[(4-chlorobenzyl)oxy]pyridin-2-yl}oxy)-5-methylphenyl]-1-[4-(4-methylbenzyl)piperazin-1-yl]prop-2-en-1-one hydrochloride] |
